The test system of data set [1] is NMDA receptor (rat cortical neurons in culture). Briefly: Digital fura-2 imaging of NMDA-evoked intracellular [Ca2+] in cultured cortical neurons. The conditions noted are these: 50 μM NMDA; Examples 1-2; NTG 100 μM in Example 2. Type of data set: cell-based, rat (Sprague-Dawley). The method, then: The concentration of intracellular free Ca^2+ ([Ca^2+ ]i) is measured in neonatal cortical neurons by digital imaging microscopy with the Ca^2+ sensitive fluorescent dye fura 2, as follows. The same cortical neuronal cultures as described above are used. During Ca^2+ measurements, unless otherwise stated the fluid bathing the neurons consists of Hanks' balanced salts: 137.6 mM NaCl, 1 mM NaHCO3, 0.34 mM Na2 HPO4, 0.44 mM KH2 PO4, 5.36 mM KCl, 1.25 mM CaCl2, 0.5 mM MgSO4, 0.5 mM MgCl2, 5 mM Hepes NaOH, 22.2 mM glucose, and sometimes with phenol red indicator (0.001% v/v); pH 7.2. NMDA (in the absence Mg^++), glutamate, and other substances are usually applied to the neurons by pressure ejection after dilution in this bath solution. Neuronal [Ca^2+ ]i is analyzed with fura 2-acetoxy-methyl ester (AM) as described [Grynkiewicz, et al., J. Biol. Chem. 260:3440 (1985); Williams et al., Nature 318:558 (1985); Connor et al., J. Neurosci. 7:1384 (1987); Connor et al., Science 240:649 (1988); Cohan et al., J. Neurosci. 7:3588 (1987); Mattson, et al., ibid, 9:3728 (1989)]. After adding Eagle's minimum essential medium containing 10 μM fura 2-AM to the neurons, the cultures are incubated at 37° C. in a 5% CO2 /95% air humidified chamber and then rinsed. The dye is loaded, trapped, and deesterified within 1 hour, as determined by stable fluorescence ratios and the effect of the Ca^2+ ionophore ionomycin on [Ca^2+ ]i is measured. During Ca^2+ imaging, the cells are incubated in a solution of Hepes-buffered saline with Hanks' balanced salts. The [Ca^2+ ]i is calculated from ratio images that are obtained by measuring the fluorescence at 500 nm that is excited by 350 and 380 nm light with a DAGE MTI 66 SIT or QUANTEX QX-100 Intensified CCD camera mounted on a Zeiss Axiovert 35 microscope. Exposure time for each picture is 500 ms. Analysis is performed with a Quantex (Sunnyvale, Calif.) QX7-210 image-processing system. Since cells are exposed to ultraviolet light only during data collection (generally less than a total of 20 s per cell), bleaching of fura 2 is minimal.
In this experiment, the effect of NTG on intracellular [Ca^++ ] increases induced by NMDA were followed using digital [Ca^++ ] imaging techniques, based on the dye fura-2.
Specifically, the model for NMDA-mediated neurotoxicity involves exposure of cultured rat cortical neurons to NMDA in the presence of glycine (a co-agonist).
Cortical cultures were derived from embryonic (fetal day 15 or 16) Sprague-Dawley rats as described previously (Dichter, 1978; Rosenberg and Aizenman, 1989). […]

For data set [2], the system named is NMDA receptor (cortical neurons). Briefly: Patch-clamp recording of NMDA-evoked current in cortical neurons. Type of data set: cell-based, rat (Sprague-Dawley). Background: Patch clamp records ionic current or voltage across a cell membrane.
The subject of data set [3] is cortical neurons (NMDA receptor-mediated neurotoxicity). Briefly: Neurotoxicity assay: survival of cortical neurons after DTT and NMDA exposure. It is filed as cell-based, rat. Conditions: NTG 100 μM (30 μM NMDA, 30 min); SNP 400 μM (75 μM NMDA, 5 min); FIGS. 6A and 6B. The procedure:
To test compounds for their ability to prevent neurotoxicity, neuronal cell death may be assayed as follows. […] The candidate compound is tested by addition (e.g., in a series of concentrations ranging from 0.1 nM-10 mM) after DTT treatment but before NMDA treatment. The candidate compound can be added for minutes, hours, or even days prior to its washout period. […] Neuronal cultures are scored for cell survival after this overnight incubation because NMDA toxicity is often delayed by several hours following NMDA exposure.
Using the neurotoxicity assay described above, the compounds sodium nitroprusside and nitroglycerin were tested individually for their ability to increase survival of neonatal cortical neurons.
As shown in FIG. 6A-6D, surviving neurons are expressed as the percentage of viable neurons in the control culture dishes in the same experiment. The concentrations of drugs were as follows: APV (2 mM), NTG (100 μM), SNP (400 μM), DTT (0.5-2 mM), and reduced Hb (500 μM). […] Values are mean ±SEM for experiments run in triplicate on sibling cultures on separate days (total of 32 experiments). Astericks indicate significant difference compared with the value for DTT-NMDA exposure, P<0.05 (ANOVA followed by Scheffe multiple comparison of means.

For data set [4] the following is noted: intravenous NTG, human; cited from earlier work.

Entries after “also recorded” stand apart in the source; their conditions may differ.

Data on one compound can be found in US5747545A, “Method of preventing NMDA receptor complex-mediated Neuronal damage” (priority 1995, dated 1998).

Turning to `O=[N+]([O-])OCC(CO[N+](=O)[O-])O[N+](=O)[O-]` [NTG, 1,2,3-propanetriol trinitrate], in data set [1], the “Effect on NMDA-evoked [Ca2+]i response” value is “persistently decreased the NMDA-evoked [Ca^2+ ]i response”. Besides, in data set [2] (50 μM NMDA + 1 μM glycine, -60 mV, DTT 2 mM, NTG 500 μM, DTNB 500 μM, 2 min exposure, washout, FIG. 4), the “Effect on NMDA-evoked current” value is listed as “attenuated; also recorded: inhibited the responses”. Moreover, in data set [2] (after 1-5 mM NEM), the “Effect on amplitude of NMDA evoked current following alkylation with NEM” value is “neither NTG nor DTNB significantly affected the amplitude of NMDA evoked current”. Moreover, in data set [3], the “Effect on neuronal injury engendered by NMDA after exposure to DTT” value is recorded as “ameliorated neuronal injury”. Besides, in data set [4], the “Time to systemic tolerance, intravenous continuous infusion” value was 18 to 24 h.
